# Results from patent US20040014726A1, “Method for the preparation of a pharmaceutical composition, and its use” (priority 2000, published 2004).
# Legend:
# isolated rat osteoclasts = test: Rat osteoclast culture on bovine bone slices; type: cell-based
# Experimental: Osteoclasts can be isolated from long bones of several species and they are cultured on bone or dentine slices to study their resorption activity (Boyde et al. 1984, Chambers et al 1984). Mostly, either rat or rabbit osteoclasts are used. They are isolated from new-born animals and cultured for 1-2 days. The resorption activity is determined either by counting the number of resorption pits on bone/dentine slices or the total resorption area is measured using a phase contrast microscope and image analysis system. We are routinely using isolated rat osteoclasts and we culture them on bovine bone slices for two days, after which we fix the cells. Cells are stained with toluidine blue and counted under the microscope (Arnett and Dempster 1987, Lakkakorpi et al. 1989). Then the cells are removed by brushing them and the resorption pits are stained with WGA lectin, which binds to resorption lacuna in the bone slice. The number and area of pits are quantified (Selander et al. 1994).
# (§1) The concentration range of the test compound in these assays was 10^−10-10^−5 M.
# [1] = tested on: osteoclast formation in mouse bone marrow culture; test: Mouse bone marrow culture, osteoclast formation (TRAP-positive multinucleated cells); type: cell-based
# Experimental: This culture system is the most used method to study osteoclast differentiation (Takahashi et al. 1988a). Mouse marrow cells can be induced to form active osteoclasts in 6-8 days in the presence of an osteotropic factor, such as 1,25(OH)2D3, parathyroid hormone, interleukin-1 or prostaglandin E2 (Takahashi et al. 1988b, Shinar et al. 1990, Collins and Chambers 1992, Jimi et al. 1999). Typically, 10^6 cells are cultured/ml of media for 6 days. Then, the cells are fixed with 3% paraformaldehyde in PBS and stained for osteoclast marker, such as tartrate-resistant acid phosphatase (TRAP). Sigma's immunohistochemical kit can be used. Multinucleated, TRAP-positive cells containing at least 3 nuclei are counted as osteoclasts (Hentunen et al. 1998).
# as §1
# [2] = tested on: osteoclast formation in spleen cell culture; test: Mouse spleen cell culture, osteoclast formation; type: cell-based
# Description: as §1
# [3] = tested on: bone metastases of human breast cancer cells in the mouse; test: Metastasis model in mouse (human breast cancer cells, osteolytic bone lesions); type: in vivo; conditions: 50 mg/kg/day s.c. for 10 days
# Experimental: The effect of the test compound has been tested in a metastasis model in the mouse. 14 days after inoculation with human breast cancer cells, when the radiologically detected osteolytic bone lesions were found, the animals were treated either with PBS (control) or the test compound (50 mg/kg/day, s.c.) for 10 days. At the end of the study, osteoclast number and bone area were measured histomorphometrically.
# [4] = tested on: mouse osteoprogenitor cells (preosteoblasts) supporting osteoclast formation; test: Mouse spleen cell/osteoblast co-culture with pre-treated osteoprogenitor cells; type: cell-based; conditions: osteoprogenitor cells incubated with 10^-5 M for 24 h, then co-culture with spleen cells; data not shown
# Description: Bone marrow stromal cells have long been known as a source of osteoprogenitor cells (Owen and Friedenstein 1988). […] These preosteoblasts can be further induced to form active osteoblasts by continuing the cultures for two more weeks in the presence of estrogen (17β-estradiol). During this culture period cells begin to express increasing levels of osteoblast markers, such as alkaline phosphatase, type I collagen and osteocalcin, and finally they are able to form bone. Bone formation is detected by bone nodule formation and calcium deposition in the cultures (Qu et al. 1998).
# A co-culture system was developed, which contains mouse spleen cells and primary mouse osteoprogenitor cells. Osteoprogenitor cells were prepared from mouse marrow as described in section C.
# When these two cell types were cultured in the presence of 1,25(OH)2D3, several osteoclasts were formed. Spleen cells alone with 1,25(OH)2D3 were not able to differentiate into osteoclasts. Mouse osteoprogenitor cells, which were able to support osteoclast formation, were incubated first with 10^−5 M of the said test compound for 24 h and then these cells were used in the co-culture with mouse spleen cells. […] This further supports the idea, that the test compound has direct inhibitory effect on osteoclast precursors.
# ovariectomized rats = test: Tests on ovariectomized rats (pQCT and bone strength); type: in vivo, rat; conditions: 12 weeks
# Experimental: The activity of [[(3-hydroxy-2-pyridyl)amino]methylidene]bisphosphonic acid tetraethylester (TC) has been tested in ovariectornized rats. In the said tests, the compound to be tested was administered to six-month old rats. The control rats were sham-operated or overiectomized and given vehicle. The compound was given to ovariectomized rats orally 7 days a week for 12 weeks beginning immediately after the surgery. The doses were 10, 50 and 100 mg/kg/day. At the end of the study, the mineral density and the geometry of the bone was measured with pQCT (peripheral quantitative computed tomography). The strength of the bone was measured with electromechanical materials testing machine. The sites of measurement were the proximal end of the tibia (not strength), the lumbar vertebra, the femoral neck and the tibial mid-diaphysis. The parameters to be measured were the bone density of the trabecular or cortical bone, the cortical area and strength of the bone.
smiles,measurement,setting,value
"CCOP(=O)(OCC)C(Nc1ncccc1O)P(=O)(OCC)OCC [test compound, [[(3-hydroxy-2-pyridinyl)amino]methylidene]bisphosphonic acid tetraethylester]",osteoclast-mediated bone resorption,isolated rat osteoclasts; data not shown,did not have any effect
same,osteoclast apoptosis,isolated rat osteoclasts; osteoclasts cultured for 1-2 days on bovine bone slices,did not have any effect
same,inhibition at 1 µM,"[1]; Mus musculus, Osteoclast, at 10^-6 M",60%
same,TRAP-positive MNC formation,[1]; at 10^-5 M,inhibit completely
same,toxic effect on other cells,[1]; at 10^-5 M,without having toxic effect on other cells
same,"1,25(OH)2D3- and PTH-induced osteoclast formation","[1]; bone marrow culture, concentration range 10^-10-10^-5 M",dose dependently inhibited
same,inhibition at 1 µM,"[2]; Mus musculus, Osteoclast, at 10^-6 M concentration",60%
same,TRAP-positive MNC formation,[2]; at 10^-5 M,completely blocked
same,osteoclast-like cell formation (TRAP-positive MNC or mononuclear cells),"[2]; at 10^-5 M, data not shown",totally blocked
same,inhibition of osteoclast formation,[2]; compound present on days 4-6,approximately 40%
same,inhibition of osteoclast formation,[2]; compound present only at days 1-3,more than 60%
same,osteoclast formation in spleen cell culture,[2]; concentration range 10^-10-10^-5 M,dose dependently inhibited
same,tumor induced decrease in bone area at the site of metastases,[3],inhibited
same,number of osteoclasts at the tumor-bone interface,[3]; compared to PBS control,decreased significantly
same,support of osteoclast formation by treated preosteoblasts,[4],supported osteoclast formation in the similar manner as non-treated preosteoblasts
same,change in the cortical area in the femoral neck caused by ovariectomy,ovariectomized rats; 50 mg/kg/day oral,inhibited the change
same,strength of the tibial mid-diaphysis,ovariectomized rats; 50 mg/kg/day oral,"improved, although not to a significantly meaningful degree"
same,cortical area in the tibial mid-diaphysis,"ovariectomized rats; 50 mg/kg/day oral, compared to a normal rat and an ovariectomized rat",increase of the cortical area
same,change in the trabecular density in the femoral neck caused by ovariectomy,ovariectomized rats; 100 mg/kg/day oral,inhibited the change
same,"area of the cortical bone in the lumbar vertebra, reduction by ovariectomy",ovariectomized rats; 50 and 100 mg/kg/day oral,inhibit these changes
same,"density of the trabecular bone in the lumbar vertebra, reduction by ovariectomy",ovariectomized rats; 50 and 100 mg/kg/day oral,inhibit these changes
same,"strength of the cortical bone in the lumbar vertebra, reduction by ovariectomy",ovariectomized rats; 50 and 100 mg/kg/day oral,inhibit these changes
same,"thickness of the cortical bone (pQCT), reduction caused by ovariectomy","ovariectomized rats; oral, FIG. 5 lower row",can be inhibited
